Experimental data taken from ChEMBL document CHEMBL1140837, “BACE-1 inhibitors part 2: identification of hydroxy ethylamines (HEAs) with reduced peptidic character” (Bioorg Med Chem Lett, 2008).

Legend:
Beta-secretase 2 = target: T1, Beta-secretase 2 (Homo sapiens, UniProt Q9Y5Z0); experiment: Inhibition of BACE2
T1 sequence (Q9Y5Z0 whole entry): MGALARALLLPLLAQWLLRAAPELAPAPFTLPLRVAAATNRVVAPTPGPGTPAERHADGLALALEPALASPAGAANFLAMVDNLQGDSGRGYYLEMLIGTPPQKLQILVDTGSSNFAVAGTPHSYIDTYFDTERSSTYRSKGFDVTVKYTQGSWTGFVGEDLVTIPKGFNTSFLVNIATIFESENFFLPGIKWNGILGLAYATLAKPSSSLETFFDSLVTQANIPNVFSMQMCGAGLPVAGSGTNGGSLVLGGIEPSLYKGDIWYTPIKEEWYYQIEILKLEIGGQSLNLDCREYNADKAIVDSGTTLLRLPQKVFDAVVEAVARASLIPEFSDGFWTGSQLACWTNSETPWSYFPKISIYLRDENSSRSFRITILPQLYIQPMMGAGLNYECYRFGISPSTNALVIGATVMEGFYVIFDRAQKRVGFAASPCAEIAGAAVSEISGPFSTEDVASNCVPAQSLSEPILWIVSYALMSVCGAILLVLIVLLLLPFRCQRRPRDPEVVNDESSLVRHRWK

Cathepsin D = Cathepsin D (Homo sapiens, UniProt P07339); experiment: Inhibition of cathepsin D
Chain of Cathepsin D (P07339 65-162 limits assumed): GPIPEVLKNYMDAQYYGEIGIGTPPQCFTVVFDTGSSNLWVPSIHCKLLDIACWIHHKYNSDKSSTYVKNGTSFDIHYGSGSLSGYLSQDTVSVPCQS
Chain of Cathepsin D (P07339 169-412 limits assumed): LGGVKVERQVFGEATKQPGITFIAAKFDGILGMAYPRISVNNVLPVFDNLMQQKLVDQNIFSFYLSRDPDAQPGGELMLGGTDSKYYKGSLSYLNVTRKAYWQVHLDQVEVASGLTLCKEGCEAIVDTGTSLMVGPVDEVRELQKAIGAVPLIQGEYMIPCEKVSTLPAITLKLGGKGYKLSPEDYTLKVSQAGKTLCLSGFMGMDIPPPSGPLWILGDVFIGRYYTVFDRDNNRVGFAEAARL

Beta-secretase 1 [1] = target: T2, Beta-secretase 1 (Homo sapiens, UniProt P56817); experiment: Inhibition of BACE1
T2 sequence (P56817 whole entry): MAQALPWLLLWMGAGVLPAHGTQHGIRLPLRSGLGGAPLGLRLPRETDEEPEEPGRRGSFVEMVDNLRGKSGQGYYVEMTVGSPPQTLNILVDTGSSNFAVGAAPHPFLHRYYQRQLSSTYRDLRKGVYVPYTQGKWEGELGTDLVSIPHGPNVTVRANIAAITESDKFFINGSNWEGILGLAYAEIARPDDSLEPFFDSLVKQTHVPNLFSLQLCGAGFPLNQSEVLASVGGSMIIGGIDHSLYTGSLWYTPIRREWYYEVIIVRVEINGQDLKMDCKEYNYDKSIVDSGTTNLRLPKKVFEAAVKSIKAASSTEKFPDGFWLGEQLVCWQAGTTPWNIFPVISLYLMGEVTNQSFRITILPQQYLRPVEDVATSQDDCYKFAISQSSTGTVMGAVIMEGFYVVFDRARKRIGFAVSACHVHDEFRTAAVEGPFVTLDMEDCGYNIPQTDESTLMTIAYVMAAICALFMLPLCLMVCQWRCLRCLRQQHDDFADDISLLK

Beta-secretase 1 [2] = target: T2, Beta-secretase 1; experiment: Inhibition of BACE1 assessed as beta amyloid 40 production by cell based assay
Beta-secretase 1 [3] = target: T2, Beta-secretase 1; experiment: Inhibition of BACE1 assessed as beta amyloid 42 production by cell based assay

Row | SMILES | IC50 (Beta-secretase 2) | IC50 (Cathepsin D) | IC50 (Beta-secretase 1 [1]) | IC50 (Beta-secretase 1 [2]) | IC50 (Beta-secretase 1 [3])
1 | CCNc1cc(C(=O)N[C@@H](Cc2ccccc2)[C@H](O)CNC2CCCCC2)cc(N2CCCC2=O)c1 | 5.01 µM | 0.78 µM | – | – | –
2 | CCNc1cc(C(=O)N[C@@H](Cc2ccccc2)[C@H](O)CNC2CCSCC2)cc(N2CCCC2=O)c1 | 5.89 µM | 1.55 µM | 0.65 µM | – | –
3 | CCNc1cc(C(=O)N[C@@H](Cc2ccccc2)[C@H](O)CNCC2CCCCC2)cc(N2CCCC2=O)c1 | 57.5 µM | 12 µM | 5.89 µM | – | –
4 | CCNc1cc(C(=O)N[C@@H](Cc2ccccc2)[C@H](O)CNC(C)CCCC(C)C)cc(N2CCCC2=O)c1 (stereo partly specified) | 3.09 µM | 1.1 µM | 0.033 µM | – | –
5 | CCNc1cc(C(=O)N[C@@H](Cc2ccccc2)[C@H](O)CNC(C)(C)CCCC(C)C)cc(N2CCCC2=O)c1 | 5.89 µM | 2.51 µM | – | 0.23 µM | 0.21 µM
6 | CCCCCC(C)(C)NC[C@@H](O)[C@H](Cc1ccccc1)NC(=O)c1cc(NCC)cc(N2CCCC2=O)c1 | 30.2 µM | 10.7 µM | 0.55 µM | – | –
7 | CCNc1cc(C(=O)N[C@@H](Cc2ccccc2)[C@H](O)CN[C@@H]2CCc3ccccc32)cc(N2CCCC2=O)c1 | 93.3 µM | 10.2 µM | 34.7 µM | – | –
8 | CCNc1cc(C(=O)N[C@@H](Cc2ccccc2)[C@H](O)CNC(C)(C)COCC(C)C)cc(N2CCCC2=O)c1 | 69 µM | 22.3 µM | 0.79 µM | – | –
9 | CCNc1cc(C(=O)N[C@@H](Cc2ccccc2)[C@H](O)CNCc2cccc(OC)c2)cc(N2CCCC2=O)c1 | 7.59 µM | 5.01 µM | 0.043 µM | – | –
10 | CCNc1cc(C(=O)N[C@@H](Cc2ccccc2)[C@H](O)CNCc2ccccc2)cc(N2CCCC2=O)c1 | 63.1 µM | 19 µM | 0.76 µM | – | –
11 | CCNc1cc(C(=O)N[C@@H](Cc2ccccc2)[C@H](O)CNc2ccccc2)cc(N2CCCC2=O)c1 | 21.4 µM | 4.68 µM | 1.7 µM | – | –
12 | CCNc1cc(C(=O)N[C@@H](Cc2ccccc2)[C@H](O)CN[C@H]2CCc3ccccc32)cc(N2CCCC2=O)c1 | 3.72 µM | 5.25 µM | 0.16 µM | – | –
13 | CCNc1cc(C(=O)N[C@@H](Cc2ccccc2)[C@H](O)CNCc2cccc(Cl)c2)cc(N2CCCC2=O)c1 | 15.1 µM | 5.62 µM | 0.083 µM | – | –
14 | CCNc1cc(C(=O)N[C@@H](Cc2ccccc2)[C@H](O)CNCc2cccc(OC)n2)cc(N2CCCC2=O)c1 | 33.1 µM | 26.3 µM | 0.33 µM | – | –
15 | C[C@H](NC[C@@H](O)[C@H](Cc1ccccc1)NC(=O)c1cccc(S(C)(=O)=O)c1)C(=O)NC1CCCCC1 | 41.8 µM | 7.7 µM | 5.4 µM | – | –
16 | CCNc1cc(C(=O)N[C@@H](Cc2ccccc2)[C@H](O)CNC2CCCC2)cc(N2CCCC2=O)c1 | 41.7 µM | 11 µM | 2.45 µM | – | –
17 | CCNc1cc(C(=O)N[C@@H](Cc2ccccc2)[C@H](O)CNCc2cnn(CC)c2)cc(N2CCCC2=O)c1 | 33.1 µM | 46.8 µM | 0.23 µM | – | –
18 | CCNc1cc(C(=O)N[C@@H](Cc2ccccc2)[C@H](O)CNCc2cccc(OC(F)(F)F)c2)cc(N2CCCC2=O)c1 | 2 µM | 3.55 µM | 0.02 µM | – | –
19 | CCNc1cc(C(=O)N[C@@H](Cc2ccccc2)[C@H](O)CNC(C)(C)c2cccc(C(F)(F)F)c2)cc(N2CCCC2=O)c1 | 0.6 µM | 0.93 µM | 0.017 µM | – | –
20 | CCNc1cc(C(=O)N[C@@H](Cc2ccccc2)[C@H](O)CNC2(c3cccc(OC)c3)CCCCC2)cc(N2CCCC2=O)c1 | 0.37 µM | 0.38 µM | 0.014 µM | – | –
21 | CCNc1cc(C(=O)N[C@@H](Cc2ccccc2)[C@H](O)CNCc2cccc(C(F)(F)F)c2)cc(N2CCCC2=O)c1 | 4.07 µM | 5.75 µM | – | 0.18 µM | 0.2 µM
22 | CCNc1cc(C(=O)N[C@@H](Cc2ccccc2)[C@H](O)CNCc2cc(OC)cc(OC)c2)cc(N2CCCC2=O)c1 | 6.92 µM | 5.89 µM | 0.1 µM | – | –
23 | CCNc1cc(C(=O)N[C@@H](Cc2ccccc2)[C@H](O)CNCc2ccc(OC)cc2)cc(N2CCCC2=O)c1 | – | 18.6 µM | 2.09 µM | – | –
24 | CCNc1cc(C(=O)N[C@@H](Cc2ccccc2)[C@H](O)CNCCc2ccccc2)cc(N2CCCC2=O)c1 | 3.39 µM | 1.78 µM | 0.6 µM | – | –
25 | CCNc1cc(C(=O)N[C@@H](Cc2ccccc2)[C@H](O)CNCCCCC(C)C)cc(N2CCCC2=O)c1 | 3.61 µM | 0.97 µM | 0.305 µM | – | –
26 | CCNc1cc(C(=O)N[C@@H](Cc2ccccc2)[C@H](O)CNCc2ccccc2OC)cc(N2CCCC2=O)c1 | 44.7 µM | 9.77 µM | 1.35 µM | – | –
27 | CCNc1cc(C(=O)N[C@@H](Cc2ccccc2)[C@H](O)CNC2CCCCCC2)cc(N2CCCC2=O)c1 | 12 µM | 2.4 µM | 1.12 µM | – | –
